Target: T1, full length G2019 human LRRK2 (Homo sapiens, UniProt Q5S007, R50H)
T1 construct: made in house; host or cells: HEK293 6E cells transduced with BacMam virus (virus generated in Sf9 cells)
Assay: Full length G2019 human LRRK2 inhibition mass spectrometry assay
Format: biochemical
Settings: LRRKtide to phospho-LRRKtide conversion, RapidFire MS, 2 mM ATP
Protocol: a. Full Length G2019 Human LRRK2 Inhibition Mass Spectrometry Assay
This assay for Leucine Rich Repeat Kinase 2 (LRRK2) inhibition is based on the direct measurement of the peptide ‘LRRKtide’ (LRRKtide: RLGRDKYKT*LRQIRQ and “*” refers to the site of phosphorylation.) and phosphorylated ‘LRRKtide’ using a high throughput Rapid Fire mass spectrometry assay. Inhibitors are compounds that reduce the conversion of LRRKtide to phospho-LRRKtide.
• 1) Compounds were dissolved in 100% DMSO at a concentration of 10 mM, and 11-point dose response curves generated using a 1 in 4 serial dilution in DMSO. 100 nL of this dilution series was then added to a 384 well, v bottom polypropylene plate (Greiner 781280), excluding columns 6 and 18. 100 nL of DMSO were added to column 6 to serve as the high control, while column 18 served as the low control containing assay buffer in place of the LRRK2 protein. Assay dilution gave a top final assay concentration of test compound of […] • 2) 5 μL of ‘enzyme solution’ containing 2× final assay concentration of purified recombinant Full length Flag-LRRK2 in assay buffer (50 mM Hepes, pH 7.2, 10 mM MgCl2, 150 mM NaCl, 5% glycerol, 0.0025% Triton X-100 and 1 mM DTT) were added to all wells using a Multidrop Combi dispenser (ThermoFisher Scientifiec), giving a final assay concentration of 25 nM LRRK2 enzyme (final concentration may vary depending on specific activity of different enzyme batches). • 3) 5 μL of substrate solution containing 50 μM LRRKtide peptide substrate and […] was added to all wells of the plate using a Multidrop Combi dispenser giving a final assay concentration of 25 μM LRRKtide peptide and 2 mM ATP. Test plates were then incubated for 1 hour at room temperature. (Incubation may vary depending on rate and linearity of reaction with different enzyme batches). • 4) 50 μl of 1% formic acid in laboratory grade water was added to all wells to quench the reaction, and plates were heat-sealed prior to centrifugation at 1348×g for 10 minutes. Test plates were then analysed on an Agilent RapidFire High Throughput solid phase extraction system coupled to AB Sciex API 4000 triple quadropole mass spectrometer with the following setting:
• Sip Height=2 mm, Aspirate=500 ms, Load time=3000 ms, Elution time=3000 ms, Requilibration=500 ms. • Flow rates: pump 1=1.5 mL/min, pump 2 1.25 mL/min pump 3=0.8 mL/min
Mass Spectrometer Settings: • LRRKtide Detection settings: Q1 mass 644.8 Da, Q3 mass 638.8, declustering potential 76 volts, collision energy 37 volts, CXP 34 volts. • Phospho-LRRKtide Detection settings: Q1 mass 671.4 Da, Q3 mass 638.8, Declustering potential 76 volts, Collision energy 37 volts, CXP 34 volts. • A C4 cartridge was used and running buffers were: A (aqueous) 0.1% formic acid in water B (organic) 0.1% formic acid, 80% acetonitrile, 20% water. • Collision gas: 12, Curtain gas: 25, Ion Source gas (1): 60, Ion Source gas (2): 60, Ion Spray Voltage: 5500, Temperature: 600, Interface Heater: ON. • Resolution Q1: low, Resolution Q3: low. • 5) Data were analysed using ActivityBase software (IDBS). A percent conversion from LRRKtide to Phospho-LRRKtide was calculated using the following formula:
% conversion=(Phospho-LRRKtide product peak area/(Phospho-LRRKtide product peak area+LRRKtide substrate peak area))*100 • A logistic 4 parameter curve fit was applied, using the following formula,
[formula] • Where x is the concentration of test sample, y is inhibition (%), a is the minimum, b is the Hill slope, c is the IC50 and d is the maximum. From this, the pIC50 was derived (−log IC50).

T1 sequence (Q5S007 with tags, fused parts or gaps R50H): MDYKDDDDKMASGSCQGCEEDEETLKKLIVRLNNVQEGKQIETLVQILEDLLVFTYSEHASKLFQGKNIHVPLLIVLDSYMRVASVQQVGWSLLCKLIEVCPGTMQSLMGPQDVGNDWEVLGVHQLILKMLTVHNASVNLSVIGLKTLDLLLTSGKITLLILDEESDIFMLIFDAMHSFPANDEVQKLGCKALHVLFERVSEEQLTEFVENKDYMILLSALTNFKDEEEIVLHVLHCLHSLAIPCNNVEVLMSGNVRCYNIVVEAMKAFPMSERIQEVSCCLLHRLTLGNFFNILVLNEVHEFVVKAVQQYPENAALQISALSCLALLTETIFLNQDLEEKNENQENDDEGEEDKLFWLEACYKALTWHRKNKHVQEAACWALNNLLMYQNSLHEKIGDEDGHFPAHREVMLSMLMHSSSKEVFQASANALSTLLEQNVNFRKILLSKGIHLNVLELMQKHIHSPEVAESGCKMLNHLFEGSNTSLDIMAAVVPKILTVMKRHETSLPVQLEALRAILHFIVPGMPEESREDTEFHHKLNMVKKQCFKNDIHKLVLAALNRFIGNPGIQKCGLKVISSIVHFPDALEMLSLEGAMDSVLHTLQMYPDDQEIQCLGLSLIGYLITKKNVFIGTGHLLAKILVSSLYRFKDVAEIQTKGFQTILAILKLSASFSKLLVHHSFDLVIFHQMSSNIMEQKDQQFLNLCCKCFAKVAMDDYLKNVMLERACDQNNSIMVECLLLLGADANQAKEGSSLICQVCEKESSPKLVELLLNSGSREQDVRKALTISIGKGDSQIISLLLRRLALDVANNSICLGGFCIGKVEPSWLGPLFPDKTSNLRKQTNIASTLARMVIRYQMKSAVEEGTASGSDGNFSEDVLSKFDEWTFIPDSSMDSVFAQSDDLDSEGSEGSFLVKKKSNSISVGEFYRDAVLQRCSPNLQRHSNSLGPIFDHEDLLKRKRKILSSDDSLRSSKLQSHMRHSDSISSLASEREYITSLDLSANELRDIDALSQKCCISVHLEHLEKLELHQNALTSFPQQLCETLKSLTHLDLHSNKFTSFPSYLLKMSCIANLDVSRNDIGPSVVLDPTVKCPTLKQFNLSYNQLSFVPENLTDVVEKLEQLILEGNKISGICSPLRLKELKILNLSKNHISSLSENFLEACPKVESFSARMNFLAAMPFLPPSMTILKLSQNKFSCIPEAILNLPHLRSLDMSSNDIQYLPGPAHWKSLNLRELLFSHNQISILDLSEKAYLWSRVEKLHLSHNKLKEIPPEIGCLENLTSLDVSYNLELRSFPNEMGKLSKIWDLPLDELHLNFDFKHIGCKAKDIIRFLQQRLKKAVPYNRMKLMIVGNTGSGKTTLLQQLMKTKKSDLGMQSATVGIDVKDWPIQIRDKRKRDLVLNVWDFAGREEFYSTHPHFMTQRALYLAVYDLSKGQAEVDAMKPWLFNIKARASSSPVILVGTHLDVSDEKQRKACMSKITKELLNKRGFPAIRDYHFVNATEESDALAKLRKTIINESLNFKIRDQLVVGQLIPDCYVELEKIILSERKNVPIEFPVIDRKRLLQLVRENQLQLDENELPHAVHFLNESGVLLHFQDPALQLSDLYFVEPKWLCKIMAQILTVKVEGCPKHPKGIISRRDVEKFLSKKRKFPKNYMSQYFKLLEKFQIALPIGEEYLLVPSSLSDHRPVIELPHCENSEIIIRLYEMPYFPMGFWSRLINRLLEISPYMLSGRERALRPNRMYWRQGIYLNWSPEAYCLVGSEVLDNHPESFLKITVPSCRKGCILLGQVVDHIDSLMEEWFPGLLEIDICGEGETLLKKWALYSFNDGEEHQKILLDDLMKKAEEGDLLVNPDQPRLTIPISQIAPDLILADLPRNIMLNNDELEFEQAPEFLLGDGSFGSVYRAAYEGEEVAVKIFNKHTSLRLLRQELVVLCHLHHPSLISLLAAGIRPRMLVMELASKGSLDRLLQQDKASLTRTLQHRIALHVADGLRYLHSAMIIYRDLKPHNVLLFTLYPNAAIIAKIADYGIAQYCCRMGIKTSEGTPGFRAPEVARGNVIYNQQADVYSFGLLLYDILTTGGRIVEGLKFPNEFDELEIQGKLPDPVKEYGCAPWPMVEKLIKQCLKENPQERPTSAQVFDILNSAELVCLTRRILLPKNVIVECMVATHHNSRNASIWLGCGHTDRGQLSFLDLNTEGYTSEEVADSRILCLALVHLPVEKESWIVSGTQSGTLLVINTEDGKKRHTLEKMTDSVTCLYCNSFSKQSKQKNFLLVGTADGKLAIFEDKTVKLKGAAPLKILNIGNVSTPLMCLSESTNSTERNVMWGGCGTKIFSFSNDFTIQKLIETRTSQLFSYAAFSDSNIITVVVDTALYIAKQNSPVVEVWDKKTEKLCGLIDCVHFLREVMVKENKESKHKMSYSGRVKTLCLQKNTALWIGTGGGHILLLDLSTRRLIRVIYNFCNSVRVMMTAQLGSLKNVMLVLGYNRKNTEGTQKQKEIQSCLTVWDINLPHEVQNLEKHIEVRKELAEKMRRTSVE

Row | IC50 | Compound
1 | ≤ 0.1 µM | Cc1c2c(nn1C(C)C1CCOCC1)OCCC(C)Nc1nc(ncc1Cl)N2 (single isomer, unassigned) [E184, 14-Chloro-4,11-dimethyl-5-[1-(oxan-4-yl)ethyl]-8-oxa-2,5,6,12,16,17-hexaazatricyclo[11.3.1.0^3,7]heptadeca-1(16),3,6,13(17),14-pentaene]
2 | ≤ 10 µM | Cc1c2c(nn1C(C)C1CCOCC1)OCCC(C)Nc1nc(ncc1Cl)N2 (single isomer, unassigned) [E185, 14-Chloro-4,11-dimethyl-5-[1-(oxan-4-yl)ethyl]-8-oxa-2,5,6,12,16,17-hexaazatricyclo[11.3.1.0^3,7]heptadeca-1(16),3,6,13(17),14-pentaene]
3 | ≤ 0.1 µM | Cc1c2c(nn1C(C)C1CCOCC1)OCCCNc1nc(ncc1Cl)N2 (single isomer, unassigned) [E187, 14-Chloro-4-methyl-5-[1-(oxan-4-yl)ethyl]-8-oxa-2,5,6,12,16,17-hexaazatricyclo[11.3.1.0^3,7]heptadeca-1(16), 3,6,13(17),14-pentaene]
4 | ≤ 10 µM | Cc1c2c(nn1C1CCOCC1)OCCC(C(F)(F)F)Nc1nc(ncc1Cl)N2 (single isomer, unassigned) [E193, 14-Chloro-4-methyl-5-(oxan-4-yl)-11-(trifluoromethyl)-8-oxa-2,5,6,12,16,17-hexaazatricyclo[11.3.1.0^3,7] heptadeca-1(16),3,6,13(17),14-pentaene]
5 | ≤ 0.1 µM | Cc1c2c(nn1C1CC(C)OC(C)C1)OCCC(C)Nc1nc(ncc1Cl)N2 (single isomer, unassigned) [E195, 14-Chloro-5-(2,6-dimethyloxan-4-yl)-4,11-dimethyl-8-oxa-2,5,6,12,16,17-hexaazatricyclo[11.3.1.0^3,7] heptadeca-1(16),3,6,13(17),14-pentaene]
6 | ≤ 10 µM | Cc1c2c(nn1C1CC(C)OC(C)C1)OCCC(C)Nc1nc(ncc1Cl)N2 (single isomer, unassigned) [E197, 14-Chloro-5-(2,6-dimethyloxan-4-yl)-4,11-dimethyl-8-oxa-2,5,6,12,16,17-hexaazatricyclo[11.3.1.0^3,7] heptadeca-1(16),3,6,13(17),14-pentaene]
7 | ≤ 10 µM | COC1CNc2nc(ncc2Cl)Nc2c(nn(C3CC(C)OC(C)C3)c2C)OC1 (single isomer, unassigned) [E199, 14-Chloro-5-(2,6-dimethyloxan-4-yl)-10-methoxy-4-methyl-8-oxa-2,5,6,12,16,17-hexaazatricyclo[11.3.1.0^3,7] heptadeca-1(16),3,6,13(17),14-pentaene]
8 | ≤ 0.1 µM | Cc1c2c(nn1C1CC(C)OC(C)C1)OCCCNc1nc(ncc1Cl)N2 (single isomer, unassigned) [E201, 14-Chloro-5-(2,6-dimethyloxan-4-yl)-4-methyl-8-oxa-2,5,6,12,16,17-hexaazatricyclo[11.3.1.0^3,7]heptadeca-1(16),3,6,13(17),14-pentaene]
9 | ≤ 0.1 µM | Cc1c2c(nn1C1CCOC(C)C1)OCCCNc1nc(ncc1Cl)N2 (single isomer, unassigned) [E203, 14-Chloro-4-methyl-5-(2-methyloxan-4-yl)-8-oxa-2,5,6,12,16,17-hexaazatricyclo[11.3.1.0^3,7]heptadeca-1(16),3,6,13(17),14-pentaene]
10 | ≤ 10 µM | Cc1c2c(nn1CCN1C[C@H]3C[C@@H]1CO3)OCCC(C)Nc1nc(ncc1Cl)N2 (single isomer, unassigned) [E209]
11 | ≤ 0.1 µM | Cc1c2c(nn1CCN1C[C@H]3C[C@@H]1CO3)OCCC(C)Nc1nc(ncc1Cl)N2 (single isomer, unassigned) [E210]
12 | ≤ 10 µM | Cc1c2c(nn1CCN1C[C@H]3C[C@@H]1CO3)OCCC(C)Nc1nc(ncc1Cl)N2 (single isomer, unassigned) [E211]
13 | ≤ 10 µM | Cc1c2c(nn1CCN1CCOCC1)OCCC(C)Nc1nc(ncc1Cl)N2 (single isomer, unassigned) [E212, 14-Chloro-4,11-dimethyl-5-[2-(morpholin-4-yl)ethyl]-8-oxa-2,5,6,12,16,17-hexaazatricyclo[11.3.1.0^3,7] heptadeca-1(16),3,6,13(17),14-pentaene]
14 | ≤ 10 µM | Cc1c2c(nn1CCN1CCC(F)(F)C1)OCCC(C)Nc1nc(ncc1Cl)N2 (single isomer, unassigned) [E214, 14-Chloro-5-[2-(3,3-difluoropyrrolidin-1-yl)ethyl]-4,11-dimethyl-8-oxa-2,5,6,12,16,17-hexaazatricyclo [11.3.1.0^3,7]heptadeca-1(16),3,6,13(17),14-pentaene]
15 | 100 µM | Cc1c2c(nn1CCN1CCC(F)C1)OCCC(C)Nc1nc(ncc1Cl)N2 (single isomer, unassigned) [E216, 14-Chloro-5-[2-(3-fluoropyrrolidin-1-yl)ethyl]-4,11-dimethyl-8-oxa-2,5,6,12,16,17-hexaazatricyclo [11.3.1.0^3,7] heptadeca-1(16),3,6,13(17),14-pentaene]
16 | ≤ 10 µM | Cc1c2c(nn1CCN1CCC(F)C1)OCCC(C)Nc1nc(ncc1Cl)N2 (single isomer, unassigned) [E217, 14-Chloro-5-[2-(3-fluoropyrrolidin-1-yl)ethyl]-4,11-dimethyl-8-oxa-2,5,6,12,16,17-hexaazatricyclo [11.3.1.0^3,7] heptadeca-1(16),3,6,13(17),14-pentaene]
17 | ≤ 10 µM | COC1CNc2nc(ncc2C(F)(F)F)Nc2c(nn(C3CCCOC3)c2C)OC1 (single isomer, unassigned) [E228, 10-Methoxy-4-methyl-5-(oxan-3-yl)-14-(trifluoromethyl)-8-oxa-2,5,6,12,16,17-hexaazatricyclo [11.3.1.0^3,7] heptadeca-1(17),3,6,13,15-pentaene]
18 | ≤ 0.1 µM | Cc1c2c(nn1C1CCOCC1F)OCCCNc1nc(ncc1Cl)N2 (single isomer, unassigned) [E236, 14-Chloro-5-(3-fluorooxan-4-yl)-4-methyl-8-oxa-2,5,6,12,16,17-hexaazatricyclo[11.3.1.0^3,7]heptadeca-1(16),3,6,13 (17),14-pentaene]
19 | ≤ 0.1 µM | Cc1c2c(nn1C1CC3CCC(C1)O3)OCCCNc1nc(ncc1Cl)N2 (single isomer, unassigned) [E244, 14-Chloro-4-methyl-5-{8-oxabicyclo[3.2.1]octan-3-yl}-8-oxa-2,5,6,12,16,17-hexaazatricyclo[11.3.1.0^3,7] heptadeca-1(16),3,6,13(17),14-pentaene]
20 | ≤ 10 µM | COC1CNc2nc(ncc2Cl)Nc2c(nn(C3CC4CCC(C3)O4)c2C)OC1 (single isomer, unassigned) [E246, 14-Chloro-10-methoxy-4-methyl-5-{8-oxabicyclo[3.2.1]octan-3-yl}-8-oxa-2,5,6,12,16,17-hexaazatricyclo [11.3.1.0^3,7]heptadeca-1(16),3,6,13(17),14-pentaene]
21 | ≤ 10 µM | Cc1c2c(nn1C1CC3CCC(C1)O3)OCCC(C)Nc1nc(ncc1Cl)N2 (single isomer, unassigned) [E250, 14-Chloro-4,11-dimethyl-5-{8-oxabicyclo[3.2.1]octan-3-yl}-8-oxa-2,5,6,12,16,17-hexaazatricyclo[11.3.1.0^3,7] heptadeca-1(16),3,6,13(17),14-pentaene]
22 | ≤ 0.1 µM | Cc1c2c(nn1C1CC3CCC(C1)O3)OCCC(C)Nc1nc(ncc1Cl)N2 (single isomer, unassigned) [E251, 14-Chloro-4,11-dimethyl-5-{8-oxabicyclo[3.2.1]octan-3-yl}-8-oxa-2,5,6,12,16,17-hexaazatricyclo[11.3.1.0^3,7] heptadeca-1(16),3,6,13(17),14-pentaene]
